Data reported in patent publication US8192962B2, “Processes for detecting toxic substances” (Daikin Industries, Ltd., priority 2001, dated 2012).

Tested on: Genes belonging to other category
Experiment: DNA chip mRNA expression in yeast, genes belonging to other category (Table 9)
Assay type: cell-based, Saccharomyces cerevisiae S288C
Summary of the method: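 Value is the scanned fluorescence intensity ratio of exposed versus chemical-free cells. Log-phase S288C yeast in YPD at 25° C. received one toxic substance for two hours, dosed to slow growth without killing; Cy3/Cy5-labeled cDNA from oligo-dT-purified mRNA was hybridized to a whole-genome chip at 65° C.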

Measured: The level of expressed mRNA in the presence of chemical substance/The level of expressed mRNA in the absence of chemical substance

CCCCCCCCCCCCOS(=O)(=O)[O-].[Na+] [(18), sodium lauryl sulfate]
1.5: yeast gene YDR510W | yeast gene YFL028C
2.9: yeast gene YFR014C
0.9: yeast gene YGL094C | yeast gene YGL229C
1.3: yeast gene YGR257C | yeast gene YHR139C | yeast gene YHR142W
0.8: yeast gene YEL042W | yeast gene YFL022C | yeast gene YGL150C | yeast gene YGL207W | yeast gene YIL142W
2.5: yeast gene YER130C | yeast gene YIL076W
1.4: yeast gene YDR481C | yeast gene YFL029C | yeast gene YFR004W | yeast gene YHL024W
1.0: yeast gene YDR403W | yeast gene YHR027C | yeast gene YHR071W | yeast gene YIL123W | yeast gene YIL140W
1.8: yeast gene YGR136W
0.7: yeast gene YDR432W
8.5: yeast gene YGR213C
1.9: yeast gene YGL166W | yeast gene YGR135W
1.6: yeast gene YHR004C
1.2: yeast gene YDR392W | yeast gene YER107C | yeast gene YFL043C | yeast gene YGL093W | yeast gene YGL141W | yeast gene YGR048W | yeast gene YGR186W | yeast gene YGR232W | yeast gene YHR163W
1.1: yeast gene YEL066W | yeast gene YER039C | yeast gene YER066W | yeast gene YGL158W | yeast gene YGR036C | yeast gene YIL050W | yeast gene YIR039C
1.7: yeast gene YFR050C | yeast gene YGR189C
